Values quoted from earlier work in patent US20260207586A1, “PHARMACEUTICAL COMPOSITION COMPRISING LURBINECTEDIN, PREPARATION METHOD THEREFOR, AND USE THEREOF” (BrightGene Bio-Medical Technology Co., Ltd., priority 2022, published 2026).

COc1ccc2[nH]c3c(c2c1)CCN[C@]31CS[C@@H]2c3c(OC(C)=O)c(C)c4c(c3[C@H](COC1=O)N1[C@@H]2[C@H]2c3c(cc(C)c(OC)c3O)C[C@@H]([C@@H]1O)N2C)OCO4 [Lurbinectedin]
Solubility in water: limited | Storage time under refrigeration (5° C.): 1 month | Stability at room temperature (25° C.): rapidly degraded
